The values that follow come from patent publication EP4700096A1, “INK COMPOSITION FOR INK-JET PRINTING” (Sakata INX Corporation, priority 2023, dated 2024).

Structures are written as SMILES.

The nature of this data set: SP value (solubility parameter) calculated by Formula 1. The format is physicochemical. The note with it: 25°C (298 K), calculated by Formula 1 from latent heat of vaporization, molecular weight, density. From the text: The SP value refers to the solubility parameter, and the SP value of the water-soluble organic solvent (B) can be determined by formula 1 below. SP value(unit:((cal/cm^3))^(1/2)) = ({(ΔH−RT)/(M/D)})^(1/2) [formula]
Regarding `CC(O)CO` (stereo not drawn) [1,2-propanediol], the “SP value (25°C)” value is 12.6 (cal/cm^3)^1/2.

As to `CC(O)COC(C)COC(C)CO` (stereo not drawn) [Tripropylene glycol], the “SP value (25°C)” value is on record as 9.0 (cal/cm^3)^1/2.

Consider `OCC(O)CO` [glycerin], for which the “SP value (25°C)” value was 14.9 (cal/cm^3)^1/2.
